Columns and labels:
CYP1A2 = target: T1, CYP1A2 (Homo sapiens, UniProt P05177); assay: CYP inhibition, CYP1A2
T1 sequence (P05177 1-516): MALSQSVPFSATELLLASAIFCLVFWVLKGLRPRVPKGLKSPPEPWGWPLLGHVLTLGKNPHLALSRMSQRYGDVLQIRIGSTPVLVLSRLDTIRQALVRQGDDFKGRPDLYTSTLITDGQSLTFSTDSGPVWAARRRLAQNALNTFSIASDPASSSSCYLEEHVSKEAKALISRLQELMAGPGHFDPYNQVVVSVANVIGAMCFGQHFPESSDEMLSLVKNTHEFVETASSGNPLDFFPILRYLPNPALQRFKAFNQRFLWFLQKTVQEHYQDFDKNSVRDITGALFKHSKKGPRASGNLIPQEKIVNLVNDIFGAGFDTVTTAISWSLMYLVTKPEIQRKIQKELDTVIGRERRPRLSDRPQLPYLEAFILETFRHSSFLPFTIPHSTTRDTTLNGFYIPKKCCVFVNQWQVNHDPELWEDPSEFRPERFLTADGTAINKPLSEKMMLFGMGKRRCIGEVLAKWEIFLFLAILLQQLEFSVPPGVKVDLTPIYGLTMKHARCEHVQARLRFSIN

hERG = hERG (Homo sapiens, UniProt Q12809); assay: hERG inhibition; assay type: cell-based
Sequence of hERG (Q12809 whole entry): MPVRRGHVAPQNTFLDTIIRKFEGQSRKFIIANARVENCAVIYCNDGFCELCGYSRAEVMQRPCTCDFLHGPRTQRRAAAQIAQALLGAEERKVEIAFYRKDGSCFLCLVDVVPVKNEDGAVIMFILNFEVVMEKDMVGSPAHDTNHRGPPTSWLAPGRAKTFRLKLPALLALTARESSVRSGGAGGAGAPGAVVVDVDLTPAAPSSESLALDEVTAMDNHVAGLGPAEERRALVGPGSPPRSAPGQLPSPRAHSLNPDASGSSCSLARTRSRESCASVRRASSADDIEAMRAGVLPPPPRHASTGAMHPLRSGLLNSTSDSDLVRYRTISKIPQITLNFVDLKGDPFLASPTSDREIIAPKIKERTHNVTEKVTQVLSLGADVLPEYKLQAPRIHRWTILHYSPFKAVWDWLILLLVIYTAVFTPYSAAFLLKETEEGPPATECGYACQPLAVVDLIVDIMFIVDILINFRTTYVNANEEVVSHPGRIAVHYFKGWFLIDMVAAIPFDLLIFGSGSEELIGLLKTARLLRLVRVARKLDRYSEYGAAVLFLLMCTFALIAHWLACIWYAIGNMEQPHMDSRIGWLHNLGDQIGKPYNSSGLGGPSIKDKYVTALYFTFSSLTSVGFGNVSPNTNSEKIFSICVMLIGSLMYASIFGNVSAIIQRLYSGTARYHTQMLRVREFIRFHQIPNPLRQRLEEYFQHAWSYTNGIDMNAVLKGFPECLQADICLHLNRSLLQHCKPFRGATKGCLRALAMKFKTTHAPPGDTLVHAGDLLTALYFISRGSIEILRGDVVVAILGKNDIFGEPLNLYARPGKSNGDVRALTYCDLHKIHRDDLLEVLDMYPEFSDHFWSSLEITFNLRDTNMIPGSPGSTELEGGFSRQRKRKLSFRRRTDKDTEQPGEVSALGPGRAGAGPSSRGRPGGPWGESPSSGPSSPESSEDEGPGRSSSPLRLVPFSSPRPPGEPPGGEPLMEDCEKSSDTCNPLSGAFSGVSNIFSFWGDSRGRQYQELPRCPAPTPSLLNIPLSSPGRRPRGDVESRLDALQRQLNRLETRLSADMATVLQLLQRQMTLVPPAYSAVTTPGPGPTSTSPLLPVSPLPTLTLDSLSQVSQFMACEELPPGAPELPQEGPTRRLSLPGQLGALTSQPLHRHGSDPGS
Experimental: Compound HCV-3 also was tested for hERG inhibition. Over the concentration range tested (up to 25 micromolar) no dose-response was obtained. […] The control compounds behaved as expected in the assay.

[1] = In vitro metabolic disposition in rat microsomes; assay type: in vitro ADME; conditions: rat pooled liver microsomes, 0-45 minutes
Experimental: (§1) Compound HCV-3 also was subjected to in vitro metabolic disposition in mouse, rat, monkey and human microsomes. The test compound was incubated with pooled liver microsomes, since […] stability in liver microsomes can be predictive of drug stability in vivo. Aliquots were taken at 0, 5, 15, 30 and 45 minutes and quenched immediately. The samples were extracted and analyzed by LC-MS/MS.

CYP2C8 = target: T2, CYP2C8 (Homo sapiens, UniProt P10632); assay: CYP inhibition, CYP2C8
T2 sequence (P10632 1-490): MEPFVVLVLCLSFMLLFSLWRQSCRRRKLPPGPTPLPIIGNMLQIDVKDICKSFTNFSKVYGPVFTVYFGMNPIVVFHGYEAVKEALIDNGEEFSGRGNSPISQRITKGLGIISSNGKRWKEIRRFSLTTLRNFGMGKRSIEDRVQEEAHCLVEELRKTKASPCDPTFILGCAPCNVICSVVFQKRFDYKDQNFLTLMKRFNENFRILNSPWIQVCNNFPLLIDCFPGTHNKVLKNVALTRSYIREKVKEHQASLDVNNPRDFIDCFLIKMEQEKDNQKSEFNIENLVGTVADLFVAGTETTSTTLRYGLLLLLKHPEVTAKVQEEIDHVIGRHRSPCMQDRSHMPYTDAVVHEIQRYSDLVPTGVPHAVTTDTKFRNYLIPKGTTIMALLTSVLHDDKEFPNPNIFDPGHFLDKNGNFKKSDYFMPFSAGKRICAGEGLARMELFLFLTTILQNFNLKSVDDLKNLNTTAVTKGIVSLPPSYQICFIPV

MDCK = MDCK permeability assay
P-gp = assay: MDCK permeability assay; conditions: dog, MDCK
μ (MOP) [2] = target: T3, μ (MOP) (Homo sapiens, UniProt P35372); assay: Cellular functional assay, agonist effect, μ (MOP); assay type: cell-based; conditions: agonist mode
T3 sequence (P35372 whole entry): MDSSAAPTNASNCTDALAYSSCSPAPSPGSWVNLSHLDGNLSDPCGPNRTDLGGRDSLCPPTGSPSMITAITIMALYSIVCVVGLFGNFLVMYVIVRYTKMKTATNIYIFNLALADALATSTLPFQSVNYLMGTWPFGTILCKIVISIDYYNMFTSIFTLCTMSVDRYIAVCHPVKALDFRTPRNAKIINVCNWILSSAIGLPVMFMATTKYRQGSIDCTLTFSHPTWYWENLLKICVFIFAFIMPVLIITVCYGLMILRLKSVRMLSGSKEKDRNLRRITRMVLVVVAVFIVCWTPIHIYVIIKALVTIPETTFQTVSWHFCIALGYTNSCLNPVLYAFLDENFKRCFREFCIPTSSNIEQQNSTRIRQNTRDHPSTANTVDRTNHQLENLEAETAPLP

CYP3A4 = CYP3A4 (Homo sapiens, UniProt P08684); assay: CYP inhibition, CYP3A4; conditions: with either substrate
Sequence of CYP3A4 (P08684 whole entry): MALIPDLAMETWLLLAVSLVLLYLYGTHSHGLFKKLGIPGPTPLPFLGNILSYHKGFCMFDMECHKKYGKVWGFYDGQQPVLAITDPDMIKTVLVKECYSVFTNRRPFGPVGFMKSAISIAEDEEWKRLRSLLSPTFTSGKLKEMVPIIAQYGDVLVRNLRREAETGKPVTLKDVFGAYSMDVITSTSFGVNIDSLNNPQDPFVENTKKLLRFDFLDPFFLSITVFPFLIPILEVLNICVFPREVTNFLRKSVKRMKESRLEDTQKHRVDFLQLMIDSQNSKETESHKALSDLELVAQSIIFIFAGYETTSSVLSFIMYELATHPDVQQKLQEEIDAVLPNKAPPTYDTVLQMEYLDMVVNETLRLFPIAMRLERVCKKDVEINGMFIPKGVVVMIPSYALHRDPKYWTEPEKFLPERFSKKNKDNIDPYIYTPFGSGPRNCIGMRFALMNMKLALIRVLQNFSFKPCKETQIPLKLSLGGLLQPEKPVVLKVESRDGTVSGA

CYP2B6 = target: T4, CYP2B6 (Homo sapiens, UniProt P20813); assay: CYP inhibition, CYP2B6
T4 sequence (P20813 1-491): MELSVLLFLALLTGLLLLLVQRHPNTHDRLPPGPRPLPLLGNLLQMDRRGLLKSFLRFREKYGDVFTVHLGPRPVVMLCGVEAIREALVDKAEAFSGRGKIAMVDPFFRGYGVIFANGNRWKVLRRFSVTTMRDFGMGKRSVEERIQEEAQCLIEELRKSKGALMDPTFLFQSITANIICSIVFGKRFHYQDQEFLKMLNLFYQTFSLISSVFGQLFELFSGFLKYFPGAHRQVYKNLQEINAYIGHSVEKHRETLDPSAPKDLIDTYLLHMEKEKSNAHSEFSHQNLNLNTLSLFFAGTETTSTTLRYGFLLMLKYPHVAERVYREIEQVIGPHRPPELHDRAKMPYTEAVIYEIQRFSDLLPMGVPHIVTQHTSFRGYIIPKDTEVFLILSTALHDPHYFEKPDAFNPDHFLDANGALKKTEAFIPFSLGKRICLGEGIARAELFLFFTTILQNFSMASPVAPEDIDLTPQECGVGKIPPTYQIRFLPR

[3] = In vitro metabolic disposition in monkey microsomes; assay type: in vitro ADME; conditions: monkey pooled liver microsomes, 0-45 minutes
Experimental: as §1

μ (MOP) [4] = target: T3, μ (MOP); assay: Cellular functional assay, antagonist effect, μ (MOP); assay type: cell-based; conditions: antagonist mode
TA 100 = assay: AMES testing, strain TA 100; assay type: cell-based; conditions: TA 100, up to 1 mg/mL, absence and presence of S9 metabolic activation
Experimental: (§2) Compound HCV-3 was negative for genotoxicity against both strains used in this assay (TA98 and TA 100) up to a maximum tested concentration of 1 mg/mL, in both the absence and presence of S9 metabolic activation. The assay controls behaved as expected.

[5] = In vitro metabolic disposition in mouse microsomes; assay type: in vitro ADME; conditions: mouse pooled liver microsomes, 0-45 minutes
Experimental: as §1

α2B(h) [6] = target: T5, α2B(h) (Homo sapiens, UniProt P18089); assay: Cellular functional assay, antagonist effect, α2B; assay type: cell-based; conditions: antagonist mode
T5 sequence (P18089 1-450): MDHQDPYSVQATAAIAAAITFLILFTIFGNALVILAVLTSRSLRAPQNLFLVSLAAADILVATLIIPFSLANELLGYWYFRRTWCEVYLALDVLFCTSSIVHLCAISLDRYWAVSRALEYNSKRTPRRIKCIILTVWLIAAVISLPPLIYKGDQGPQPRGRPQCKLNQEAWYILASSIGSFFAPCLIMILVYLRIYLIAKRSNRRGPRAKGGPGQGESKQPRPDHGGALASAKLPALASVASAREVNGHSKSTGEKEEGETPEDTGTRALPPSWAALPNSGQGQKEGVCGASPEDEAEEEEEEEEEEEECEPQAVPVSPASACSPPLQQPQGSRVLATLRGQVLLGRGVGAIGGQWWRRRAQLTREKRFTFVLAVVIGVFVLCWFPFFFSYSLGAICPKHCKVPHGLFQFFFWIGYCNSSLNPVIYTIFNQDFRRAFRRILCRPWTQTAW

CYP2D6 = CYP2D6 (Homo sapiens, UniProt P10635); assay: CYP inhibition, CYP2D6
Sequence of CYP2D6 (P10635 whole entry): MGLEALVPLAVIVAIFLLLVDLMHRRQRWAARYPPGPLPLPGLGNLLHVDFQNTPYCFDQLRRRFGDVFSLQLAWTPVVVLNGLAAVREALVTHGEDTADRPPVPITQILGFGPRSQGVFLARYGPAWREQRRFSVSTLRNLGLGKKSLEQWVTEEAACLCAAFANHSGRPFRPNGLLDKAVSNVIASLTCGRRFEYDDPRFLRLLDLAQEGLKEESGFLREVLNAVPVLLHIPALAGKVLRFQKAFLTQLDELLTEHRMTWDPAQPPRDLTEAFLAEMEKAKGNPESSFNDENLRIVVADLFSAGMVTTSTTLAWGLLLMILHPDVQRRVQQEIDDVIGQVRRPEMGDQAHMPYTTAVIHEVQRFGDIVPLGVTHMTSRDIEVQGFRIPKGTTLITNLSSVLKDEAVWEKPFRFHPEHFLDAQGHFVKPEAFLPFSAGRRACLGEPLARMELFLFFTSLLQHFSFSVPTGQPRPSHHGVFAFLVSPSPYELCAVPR

CYP2C19 = CYP2C19 (Homo sapiens, UniProt P33261); assay: CYP inhibition, CYP2C19
Sequence of CYP2C19 (P33261 whole entry): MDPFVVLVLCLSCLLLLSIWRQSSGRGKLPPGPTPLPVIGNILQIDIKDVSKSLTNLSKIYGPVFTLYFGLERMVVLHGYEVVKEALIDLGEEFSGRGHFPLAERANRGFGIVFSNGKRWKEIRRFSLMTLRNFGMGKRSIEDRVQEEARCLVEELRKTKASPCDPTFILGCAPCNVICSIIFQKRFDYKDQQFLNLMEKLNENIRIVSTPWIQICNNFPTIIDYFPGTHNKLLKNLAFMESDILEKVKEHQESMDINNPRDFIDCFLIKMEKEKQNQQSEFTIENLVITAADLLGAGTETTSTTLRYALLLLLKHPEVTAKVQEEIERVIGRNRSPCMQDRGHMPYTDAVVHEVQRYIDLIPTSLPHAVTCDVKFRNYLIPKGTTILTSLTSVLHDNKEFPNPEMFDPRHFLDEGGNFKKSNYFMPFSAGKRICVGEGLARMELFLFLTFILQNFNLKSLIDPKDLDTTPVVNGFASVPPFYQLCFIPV

CYP2C9 = CYP2C9 (Homo sapiens, UniProt P11712); assay: CYP inhibition, CYP2C9
Sequence of CYP2C9 (P11712 whole entry): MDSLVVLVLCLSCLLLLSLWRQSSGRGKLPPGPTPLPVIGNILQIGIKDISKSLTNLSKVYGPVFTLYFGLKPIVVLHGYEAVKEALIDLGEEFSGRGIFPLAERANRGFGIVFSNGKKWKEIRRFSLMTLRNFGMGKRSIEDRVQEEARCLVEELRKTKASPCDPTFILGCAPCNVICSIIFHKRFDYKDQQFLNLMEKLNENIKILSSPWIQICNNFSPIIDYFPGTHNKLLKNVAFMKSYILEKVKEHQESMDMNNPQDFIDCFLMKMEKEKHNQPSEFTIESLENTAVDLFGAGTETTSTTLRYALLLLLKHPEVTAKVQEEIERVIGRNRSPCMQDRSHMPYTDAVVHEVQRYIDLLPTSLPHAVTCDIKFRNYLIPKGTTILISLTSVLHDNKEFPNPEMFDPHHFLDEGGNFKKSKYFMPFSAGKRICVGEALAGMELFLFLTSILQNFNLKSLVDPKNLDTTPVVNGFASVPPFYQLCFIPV

TA98 = assay: AMES testing, strain TA98; assay type: cell-based; conditions: TA98, up to 1 mg/mL, absence and presence of S9 metabolic activation
Experimental: as §2

κ (KOP) [7] = target: T6, κ (KOP) (Rattus norvegicus, UniProt P34975); assay: Cellular functional assay, agonist effect, κ (KOP); assay type: cell-based; conditions: agonist mode
T6 sequence (P34975 whole entry): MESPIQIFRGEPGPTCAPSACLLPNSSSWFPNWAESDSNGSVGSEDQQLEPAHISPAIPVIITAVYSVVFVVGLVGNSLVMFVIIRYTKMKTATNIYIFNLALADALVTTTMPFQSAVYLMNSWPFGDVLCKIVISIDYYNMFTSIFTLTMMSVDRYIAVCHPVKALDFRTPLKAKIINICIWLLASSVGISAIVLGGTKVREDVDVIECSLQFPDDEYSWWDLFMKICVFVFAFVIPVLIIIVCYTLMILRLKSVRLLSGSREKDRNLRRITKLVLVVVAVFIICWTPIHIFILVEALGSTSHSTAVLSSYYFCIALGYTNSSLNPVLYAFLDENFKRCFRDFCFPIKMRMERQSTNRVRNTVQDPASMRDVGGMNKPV

κ (KOP) [8] = target: T6, κ (KOP); assay: Cellular functional assay, antagonist effect, κ (KOP); assay type: cell-based
α2B(h) [9] = target: T5, α2B(h); assay: Cellular functional assay, agonist effect, α2B; assay type: cell-based
[10] = In vitro metabolic disposition in human microsomes; assay type: in vitro ADME; conditions: human pooled liver microsomes, 0-45 minutes
Experimental: as §1

## CCC(=O)NC1CCN(CCc2ccccc2)CC1 [HCV-3, N-(1-phenethylpiperidin-4-yl)propionamide]
CYP1A2
  CYP1A2 inhibition: No inhibition
hERG
  hERG inhibition category: weak or no hERG inhibition
hERG; concentration range tested up to 25 micromolar
  IC50: > 25000 nM
hERG; human, at the top concentration of 25 micromolar
  inhibition at 25 micromolar: 32.5%
[1]
  clearance: moderate clearance
CYP2C8
  CYP2C8 inhibition: No inhibition
MDCK; MDCK assay
  permeability: highly permeable
P-gp
  efflux ratio: 1.48
μ (MOP) [2]; 1.0E−05, first replicate
  % of Control Agonist Response, 1st: 28.1%
μ (MOP) [2]; 1.0E−05, mean
  % of Control Agonist Response, Mean: 33.5%
μ (MOP) [2]; 1.0E−05, second replicate
  % of Control Agonist Response, 2nd: 38.9%
μ (MOP) [2]; test concentration 1.0E−05
  % of Control Agonist Response: 33.5%
CYP3A4
  CYP3A4 inhibition: No inhibition
CYP2B6
  CYP2B6 inhibition: No inhibition
[3]
  clearance: low clearance
μ (MOP) [4]; 1.0E−05, first replicate
  Agonist Response (% of Control), 1st: 100.1 % of Control
μ (MOP) [4]; 1.0E−05, mean
  Agonist Response (% of Control), Mean: 101.0 % of Control
μ (MOP) [4]; 1.0E−05, second replicate
  Agonist Response (% of Control), 2nd: 101.8 % of Control
μ (MOP) [4]; test concentration 1.0E−05
  % Inhibition of Control Agonist Response: −1%
TA 100
  genotoxicity: negative
[5]
  clearance: low clearance
α2B(h) [6]; 1.0E−05, first replicate
  Agonist Response (% of Control), 1st: 116.8 % of Control
α2B(h) [6]; 1.0E−05, mean
  Agonist Response (% of Control), Mean: 127.8 % of Control
α2B(h) [6]; 1.0E−05, second replicate
  Agonist Response (% of Control), 2nd: 138.7 % of Control
α2B(h) [6]; test concentration 1.0E−05
  % Inhibition of Control Agonist Response: −28%
CYP2D6
  CYP2D6 inhibitor category: moderate CYP2D6 inhibitor
  IC50: 4200 nM
CYP2C19
  CYP2C19 inhibitor category: weak CYP2C19 inhibitor
  inhibition at 25 micromolar: 36.4%
CYP2C9
  CYP2C9 inhibition: No inhibition
TA98
  genotoxicity: negative
κ (KOP) [7]; 1.0E−05, first replicate
  % of Control Agonist Response, 1st: −10.3%
κ (KOP) [7]; 1.0E−05, mean
  % of Control Agonist Response, Mean: −4.2%
κ (KOP) [7]; 1.0E−05, second replicate
  % of Control Agonist Response, 2nd: 1.8%
κ (KOP) [7]; test concentration 1.0E−05
  % of Control Agonist Response: −4.2%
κ (KOP) [8]; antagonist mode, 1.0E−05, first replicate
  Agonist Response (% of Control), 1st: 112.4 % of Control
κ (KOP) [8]; antagonist mode, 1.0E−05, mean
  Agonist Response (% of Control), Mean: 94.4 % of Control
κ (KOP) [8]; antagonist mode, 1.0E−05, second replicate
  Agonist Response (% of Control), 2nd: 76.5 % of Control
κ (KOP) [8]; antagonist mode, test concentration 1.0E−05
  % Inhibition of Control Agonist Response: 6%
α2B(h) [9]; agonist mode, 1.0E−05, first replicate
  % of Control Agonist Response, 1st: 9.2%
α2B(h) [9]; agonist mode, 1.0E−05, mean
  % of Control Agonist Response, Mean: 7.1%
α2B(h) [9]; agonist mode, 1.0E−05, second replicate
  % of Control Agonist Response, 2nd: 5.1%
α2B(h) [9]; agonist mode, test concentration 1.0E−05
  % of Control Agonist Response: 7.1%
[10]
  clearance: low clearance

## Oc1ccc2c3c1O[C@H]1c4[nH]c5c(c4C[C@@]4(O)[C@@H](C2)N(CC2CC2)CC[C@]314)C[C@@]1(O)[C@H]2Cc3ccc(O)c4c3[C@@]1(CCN2CC1CC1)[C@H]5O4 [nor-BNI, reference compound]
κ (KOP) [8]; reference antagonist, read-out: Reference Kb Ref
  Kb: 0.072 nM

## Cc1cccc([C@H](C)c2c[nH]cn2)c1C [dexmedetc, reference compound]
α2B(h) [9]; reference agonist, read-out: Reference EC50 Ref
  EC50: 13 nM

## COc1cc2nc(N3CCN(C(=O)c4ccco4)CC3)nc(N)c2cc1OC [prazosin, reference compound]
MDCK; in the absence of Cyclosporin A
  efflux (control compound): showing efflux
MDCK; in the presence of Cyclosporin A
  efflux (control compound): inhibited

From patent publication US10617681B2, “1-arylalkyl-4-acylaminopiperidine compounds” (ARIZONA BOARD OF REGENTS ON BEHALF OF THE UNIVERSITY OF …, priority 2014, dated 2020)
